Values joined by “and” are separate entries in the source; they are usually repeats but may differ in a detail not shown here. Equal entries are not always repeated. Inconclusive results and toxic doses are left out. How the source made its calls: active means survival T/C of 150% or more; inactive means T/C below 125% in these data.
System: P388 leukemia ip, CD2F1 mice, survival T/C
Experiment: NCI In Vivo Anticancer Drug Screen. Data for tumor model P388 Leukemia (intraperitoneal) in CD2F1 (CDF1) mice
Conditions: endpoint: median survival time, higher = longer survival
Method in brief: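 Mice carrying the transplanted tumor received test compound or vehicle. Survival was recorded in each group, and the value is the treated-group measurement divided by that of the vehicle-treated control group.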

[1] = dose: 60.0 mg/kg/injection, schedule: Q01DX005 (ip), vehicle: Klucel + Tween-80
[2] = dose: 120.0 mg/kg/injection, schedule: Q01DX005 (ip), vehicle: Klucel + Tween-80
[3] = dose: 240.0 mg/kg/injection, schedule: Q01DX005 (ip), vehicle: Klucel + Tween-80
[4] = dose: 50.0 mg/kg/injection, schedule: Q01DX005 (ip), vehicle: saline with Tween-80
[5] = dose: 100.0 mg/kg/injection, schedule: Q01DX005 (ip), vehicle: saline with Tween-80
[6] = dose: 200.0 mg/kg/injection, schedule: Q01DX005 (ip), vehicle: saline with Tween-80
[7] = dose: 25.0 mg/kg/injection, schedule: Q01DX009 (ip), vehicle: Klucel (hydroxypropylcellulose) (HPC)
[8] = dose: 50.0 mg/kg/injection, schedule: Q01DX009 (ip), vehicle: Klucel (hydroxypropylcellulose) (HPC)
[9] = dose: 15.0 mg/kg/injection, schedule: Q01DX005 (ip), vehicle: saline with Tween-80
[10] = dose: 30.0 mg/kg/injection, schedule: Q01DX005 (ip), vehicle: saline with Tween-80
[11] = dose: 60.0 mg/kg/injection, schedule: Q01DX005 (ip), vehicle: saline with Tween-80
[12] = dose: 50.0 mg/kg/injection, schedule: Q04DX003 (ip), vehicle: saline with Tween-80
[13] = dose: 100.0 mg/kg/injection, schedule: Q04DX003 (ip), vehicle: saline with Tween-80
[14] = dose: 200.0 mg/kg/injection, schedule: Q04DX003 (ip), vehicle: saline with Tween-80

Measured: T/C

CC/C(=C(/O)c1ccccc1)c1nc2ccc(Cl)cc2[nH]c1=O
inactive: [1] 100 % of control | [2] 93 % of control | [3] 98 % of control

NC(=S)N/N=C/c1cc(Cl)sc1Cl
inactive: [4] 102 % of control | [5] 98 % of control | [6] 96 % of control

Cc1ccc(NC(=O)OCCN(C)C)cc1Cl
inactive: [1] 101 % of control | [2] 99 % of control | [3] 91 % of control

CCc1ncc(C(C)(O)c2ccc(C)cc2)n1Cc1ccccc1 (stereo not drawn)
inactive: dose: 60.0 mg/kg/injection, schedule: Q01DX005 (ip), vehicle: Klucel (hydroxypropylcellulose) (HPC) 90 % of control | dose: 120.0 mg/kg/injection, schedule: Q01DX005 (ip), vehicle: Klucel (hydroxypropylcellulose) (HPC) 86 % of control | dose: 240.0 mg/kg/injection, schedule: Q01DX005 (ip), vehicle: Klucel (hydroxypropylcellulose) (HPC) 86 % of control

C=C(C(C)=O)c1ccccc1
inactive: [7] 100 % of control | [8] 98 % of control | dose: 100.0 mg/kg/injection, schedule: Q01DX009 (ip), vehicle: Klucel (hydroxypropylcellulose) (HPC) 100 % of control | dose: 200.0 mg/kg/injection, schedule: Q01DX009 (ip), vehicle: Klucel (hydroxypropylcellulose) (HPC) 107 % of control | dose: 400.0 mg/kg/injection, schedule: Q01DX009 (ip), vehicle: Klucel (hydroxypropylcellulose) (HPC) 107 % of control

CC(C)C1CCC(C)C1C(N)=O (stereo not drawn)
inactive: dose: 100.0 mg/kg/injection, schedule: Q04DX002 (ip), vehicle: saline with Tween-80 103 % of control | dose: 200.0 mg/kg/injection, schedule: Q04DX002 (ip), vehicle: saline with Tween-80 99 % of control | dose: 400.0 mg/kg/injection, schedule: Q04DX002 (ip), vehicle: saline with Tween-80 99 % of control

CCOC(=O)c1ccc(NCc2ccc(CNc3ccc(C(=O)OCC)cc3)cc2)cc1
inactive: dose: 6.25 mg/kg/injection, schedule: Q01DX009 (ip), vehicle: saline with Tween-80 105 % of control | dose: 12.5 mg/kg/injection, schedule: Q01DX009 (ip), vehicle: saline with Tween-80 103 % of control | dose: 25.0 mg/kg/injection, schedule: Q01DX009 (ip), vehicle: saline with Tween-80 94 % of control | dose: 50.0 mg/kg/injection, schedule: Q01DX009 (ip), vehicle: saline with Tween-80 89 % of control | dose: 100.0 mg/kg/injection, schedule: Q01DX009 (ip), vehicle: saline with Tween-80 89 % of control

ClCCN1c2ccccc2Oc2cc3ccccc3cc21
inactive: [4] 101 % of control | [5] 110 % of control | [6] 100 % of control

O=C(NCc1ccc(S(=O)(=O)F)cc1)Oc1ccc([N+](=O)[O-])cc1
inactive: dose: 7.5 mg/kg/injection, schedule: Q01DX005 (ip), vehicle: saline with Tween-80 102 % of control | [9] 96 % of control | [10] 99 % of control | [11] 99 % of control and 112 % of control

CC(CC(=O)c1ccccc1)=NCC(O)CN=C(C)CC(=O)c1ccccc1.[Cu] (stereo not drawn)
inactive: dose: 12.5 mg/kg/injection, schedule: Q04DX003 (ip), vehicle: saline with Tween-80 96 % of control | dose: 25.0 mg/kg/injection, schedule: Q04DX003 (ip), vehicle: saline with Tween-80 93 % of control | [12] 96 % of control | [13] 94 % of control and 98 % of control | [14] 101 % of control and 92 % of control | dose: 400.0 mg/kg/injection, schedule: Q04DX003 (ip), vehicle: saline with Tween-80 96 % of control

N=C(N)c1ccc2cc(C(=N)N)[nH]c2c1
inactive: dose: 6.25 mg/kg/injection, schedule: Q04DX003 (ip), vehicle: saline 100 % of control | dose: 12.5 mg/kg/injection, schedule: Q04DX003 (ip), vehicle: saline 100 % of control | dose: 25.0 mg/kg/injection, schedule: Q04DX003 (ip), vehicle: saline 107 % of control

C1=C2OCOC2=CC2Cc3cc4c(cc3/C=C3\CC5=C(C=C3/C=C/12)OCO5)OCO4 (stereo not drawn)
inactive: [4] 92 % of control | [5] 93 % of control | [6] 98 % of control

COc1c2c(cc3c1-c1c(cc4c(c1OC)OCO4)CC(C)C(C)C3)OCO2 (stereo not drawn)
inactive: dose: 13.75 mg/kg/injection, schedule: Q01DX005 (ip), vehicle: Klucel (hydroxypropylcellulose) (HPC) 95 % of control | dose: 27.5 mg/kg/injection, schedule: Q01DX005 (ip), vehicle: Klucel (hydroxypropylcellulose) (HPC) 98 % of control | dose: 55.0 mg/kg/injection, schedule: Q01DX005 (ip), vehicle: Klucel (hydroxypropylcellulose) (HPC) 98 % of control | dose: 110.0 mg/kg/injection, schedule: Q01DX005 (ip), vehicle: Klucel (hydroxypropylcellulose) (HPC) 90 % of control

CC(C)CNC1=CC(=O)c2ccccc2C1=O
inactive: [12] 106 % of control | [13] 108 % of control | [14] 92 % of control

CCOc1c2c(nn(C)c1=O)Oc1ccccc1N2CCCN1CCOCC1
inactive: [9] 96 % of control | [10] 90 % of control | [11] 104 % of control and 91 % of control

Cc1cc(NC(=S)SC(C)C)ccc1Br
inactive: dose: 50.0 mg/kg/injection, schedule: Q01DX009 (ip), vehicle: suspension in saline 100 % of control | dose: 100.0 mg/kg/injection, schedule: Q01DX009 (ip), vehicle: suspension in saline 101 % of control | dose: 200.0 mg/kg/injection, schedule: Q01DX009 (ip), vehicle: suspension in saline 100 % of control

CN1C(=O)c2ccccc2CC12c1ccccc1C(=O)N2C (stereo not drawn)
inactive: dose: 12.5 mg/kg/injection, schedule: Q01DX005 (ip), vehicle: saline with Tween-80 94 % of control | dose: 25.0 mg/kg/injection, schedule: Q01DX005 (ip), vehicle: saline with Tween-80 90 % of control | [4] 108 % of control

COc1cc(C2c3cc4c(cc3OC(OC(C)=O)C2C)OCO4)cc(OC)c1OC (stereo not drawn)
inactive: [11] 96 % of control | dose: 120.0 mg/kg/injection, schedule: Q01DX005 (ip), vehicle: saline with Tween-80 94 % of control | dose: 240.0 mg/kg/injection, schedule: Q01DX005 (ip), vehicle: saline with Tween-80 105 % of control

CC1OC(C)(C)OC1C(=O)O (stereo not drawn)
inactive: dose: 3.13 mg/kg/injection, schedule: Q01DX009 (ip), vehicle: Klucel (hydroxypropylcellulose) (HPC) 89 % of control | dose: 6.25 mg/kg/injection, schedule: Q01DX009 (ip), vehicle: Klucel (hydroxypropylcellulose) (HPC) 95 % of control | dose: 12.5 mg/kg/injection, schedule: Q01DX009 (ip), vehicle: Klucel (hydroxypropylcellulose) (HPC) 92 % of control | [7] 89 % of control | [8] 89 % of control
